PubChem BioAssay (NCI)
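Assay format: 96-well plates, 48-hour exposure. TGI is the concentration that stops growth completely.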

Tests used:
Assay in all cases: NCI tumour cell line growth inhibition, 48 h
SW-620 colon = test system: SW-620 colon
HT29 colon = test system: HT29 colon
SNB-78 CNS = test system: SNB-78 CNS
A498 renal = test system: A498 renal
NCI-H226 lung = test system: NCI-H226 lung
M19-MEL melanoma = test system: M19-MEL melanoma
CCRF-CEM leukemia = test system: CCRF-CEM leukemia
SK-MEL-2 melanoma = test system: SK-MEL-2 melanoma
LOX IMVI melanoma = test system: LOX IMVI melanoma
KM12 colon = test system: KM12 colon
A549 NSCLC = test system: A549 NSCLC
TK-10 renal = test system: TK-10 renal
DMS 114 small cell lung = test system: DMS 114 small cell lung
SN12C renal = test system: SN12C renal
IGROV1 ovarian = test system: IGROV1 ovarian
OVCAR-8 ovarian = test system: OVCAR-8 ovarian
HCT-116 colon = test system: HCT-116 colon
NCI-H522 lung = test system: NCI-H522 lung
UO-31 renal = test system: UO-31 renal
SK-MEL-28 melanoma = test system: SK-MEL-28 melanoma
MALME-3M melanoma = test system: MALME-3M melanoma
HOP-18 NSCLC = test system: HOP-18 NSCLC
OVCAR-3 ovarian = test system: OVCAR-3 ovarian
MOLT-4 leukemia = test system: MOLT-4 leukemia
U251 CNS = test system: U251 CNS
SF-268 CNS = test system: SF-268 CNS
K-562 leukemia = test system: K-562 leukemia
XF 498 CNS = test system: XF 498 CNS
SF-295 CNS = test system: SF-295 CNS
UACC-62 melanoma = test system: UACC-62 melanoma
SK-MEL-5 melanoma = test system: SK-MEL-5 melanoma
RXF 393 renal = test system: RXF 393 renal
HCT-15 colon = test system: HCT-15 colon
DLD-1 colon = test system: DLD-1 colon
HL-60(TB) leukemia = test system: HL-60(TB) leukemia
SNB-19 CNS = test system: SNB-19 CNS
SF-539 CNS = test system: SF-539 CNS
SK-OV-3 ovarian = test system: SK-OV-3 ovarian
NCI-H460 lung = test system: NCI-H460 lung
UACC-257 melanoma = test system: UACC-257 melanoma
SNB-75 CNS = test system: SNB-75 CNS
DMS 273 small cell lung = test system: DMS 273 small cell lung
ACHN renal = test system: ACHN renal
HOP-92 NSCLC = test system: HOP-92 NSCLC
OVCAR-4 ovarian = test system: OVCAR-4 ovarian
M14 melanoma = test system: M14 melanoma
COLO 205 colon = test system: COLO 205 colon
SR leukemia = test system: SR leukemia
HOP-62 NSCLC = test system: HOP-62 NSCLC
CAKI-1 renal = test system: CAKI-1 renal
EKVX NSCLC = test system: EKVX NSCLC
OVCAR-5 ovarian = test system: OVCAR-5 ovarian
NCI-H23 lung = test system: NCI-H23 lung
786-0 renal = test system: 786-0 renal
KM20L2 colon = test system: KM20L2 colon
LXFL 529 NSCLC = test system: LXFL 529 NSCLC

CN(C)CCCNC(=O)N/N=C/c1ccccc1
TGI (SW-620 colon): > 100 µM
TGI (HT29 colon): > 100 µM
TGI (SNB-78 CNS): > 100 µM
TGI (A498 renal): > 100 µM
TGI (NCI-H226 lung): > 100 µM
TGI (M19-MEL melanoma): > 100 µM
TGI (CCRF-CEM leukemia): > 100 µM
TGI (SK-MEL-2 melanoma): > 100 µM
TGI (LOX IMVI melanoma): > 100 µM
TGI (KM12 colon): > 100 µM
TGI (A549 NSCLC): > 100 µM
TGI (TK-10 renal): > 100 µM
TGI (DMS 114 small cell lung): > 100 µM
TGI (SN12C renal): > 100 µM
TGI (IGROV1 ovarian): > 100 µM
TGI (OVCAR-8 ovarian): > 100 µM
TGI (HCT-116 colon): > 100 µM
TGI (NCI-H522 lung): > 100 µM
TGI (UO-31 renal): > 100 µM
TGI (SK-MEL-28 melanoma): > 100 µM
TGI (MALME-3M melanoma): > 100 µM
TGI (HOP-18 NSCLC): > 100 µM
TGI (OVCAR-3 ovarian): > 100 µM
TGI (MOLT-4 leukemia): > 100 µM
TGI (U251 CNS): > 100 µM
TGI (SF-268 CNS): > 100 µM
TGI (K-562 leukemia): > 100 µM
TGI (XF 498 CNS): > 100 µM
TGI (SF-295 CNS): > 100 µM
TGI (UACC-62 melanoma): > 100 µM
TGI (SK-MEL-5 melanoma): > 100 µM
TGI (RXF 393 renal): > 100 µM
TGI (HCT-15 colon): > 100 µM
TGI (DLD-1 colon): > 100 µM
TGI (HL-60(TB) leukemia): > 100 µM
TGI (SNB-19 CNS): > 100 µM
TGI (SF-539 CNS): > 100 µM
TGI (SK-OV-3 ovarian): > 100 µM
TGI (NCI-H460 lung): > 100 µM
TGI (UACC-257 melanoma): > 100 µM
TGI (SNB-75 CNS): > 100 µM
TGI (DMS 273 small cell lung): > 100 µM
TGI (ACHN renal): > 100 µM

CC(C)(C)c1ccnc(N=C2N=C(Nc3cc(C(C)(C)C)ccn3)c3ccccc32)c1
TGI (SW-620 colon): > 100 µM
TGI (HT29 colon): 75 µM
TGI (SNB-78 CNS): 75 µM
TGI (A498 renal): 53.4 µM
TGI (NCI-H226 lung): > 100 µM
TGI (M19-MEL melanoma): > 100 µM
TGI (CCRF-CEM leukemia): > 100 µM
TGI (HOP-92 NSCLC): 47.1 µM
TGI (SK-MEL-2 melanoma): > 100 µM
TGI (OVCAR-4 ovarian): > 100 µM
TGI (LOX IMVI melanoma): > 100 µM
TGI (KM12 colon): > 100 µM
TGI (A549 NSCLC): 62.3 µM
TGI (TK-10 renal): 46.1 µM
TGI (SN12C renal): > 100 µM
TGI (IGROV1 ovarian): 72.1 µM
TGI (OVCAR-8 ovarian): 41.7 µM
TGI (HCT-116 colon): 30.8 µM
TGI (NCI-H522 lung): 44.8 µM
TGI (UO-31 renal): 65.3 µM
TGI (SK-MEL-28 melanoma): 86.8 µM
TGI (M14 melanoma): > 100 µM
TGI (MALME-3M melanoma): 63.7 µM
TGI (HOP-18 NSCLC): 59.6 µM
TGI (OVCAR-3 ovarian): 47.4 µM
TGI (COLO 205 colon): > 100 µM
TGI (SR leukemia): > 100 µM
TGI (HOP-62 NSCLC): 75.5 µM
TGI (MOLT-4 leukemia): 85.8 µM
TGI (CAKI-1 renal): 53.1 µM
TGI (EKVX NSCLC): > 100 µM
TGI (U251 CNS): 51 µM
TGI (SF-268 CNS): 37.9 µM
TGI (K-562 leukemia): > 100 µM
TGI (XF 498 CNS): 38.6 µM
TGI (OVCAR-5 ovarian): > 100 µM
TGI (SF-295 CNS): 52 µM
TGI (NCI-H23 lung): 94.6 µM
TGI (UACC-62 melanoma): > 100 µM
TGI (786-0 renal): 43.9 µM
TGI (RXF 393 renal): 54.9 µM
TGI (HCT-15 colon): > 100 µM
TGI (DLD-1 colon): > 100 µM
TGI (HL-60(TB) leukemia): > 100 µM
TGI (SNB-19 CNS): 44.4 µM
TGI (SF-539 CNS): > 100 µM
TGI (SK-OV-3 ovarian): 49 µM
TGI (NCI-H460 lung): > 100 µM
TGI (KM20L2 colon): 59.6 µM
TGI (UACC-257 melanoma): 76.1 µM
TGI (SNB-75 CNS): > 100 µM
TGI (ACHN renal): > 100 µM
TGI (LXFL 529 NSCLC): > 100 µM
